# Values joined by “and” are separate entries in the source; they are usually repeats but may differ in a detail not shown here. Equal values may be shown once.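 Cells were grown in 96-well plates and exposed to each compound for 48 hours at five concentrations; endpoints were interpolated linearly between bracketing concentrations, or set to the highest concentration if not reached. At the GI50, growth is halved. TGI marks complete inhibition of growth.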
# How the values were obtained:
# Test in all cases: NCI tumour cell line growth inhibition, 48 h
# CCRF-CEM leukemia = system: CCRF-CEM leukemia
# DU-145 prostate = system: DU-145 prostate
# HOP-62 NSCLC = system: HOP-62 NSCLC
# HS 578T breast = system: HS 578T breast
# MALME-3M melanoma = system: MALME-3M melanoma
# NCI/ADR-RES ovarian = system: NCI/ADR-RES ovarian
# RPMI-8226 leukemia = system: RPMI-8226 leukemia
# SN12C renal = system: SN12C renal
# SNB-19 CNS = system: SNB-19 CNS
# UACC-257 melanoma = system: UACC-257 melanoma
SMILES,GI50 (CCRF-CEM leukemia) [µM],TGI (CCRF-CEM leukemia),GI50 (DU-145 prostate) [µM],TGI (DU-145 prostate),GI50 (HOP-62 NSCLC) [µM],TGI (HOP-62 NSCLC),GI50 (HS 578T breast) [µM],TGI (HS 578T breast),GI50 (MALME-3M melanoma) [µM],TGI (MALME-3M melanoma),GI50 (NCI/ADR-RES ovarian) [µM],TGI (NCI/ADR-RES ovarian),GI50 (RPMI-8226 leukemia) [µM],TGI (RPMI-8226 leukemia),GI50 (SN12C renal) [µM],TGI (SN12C renal),GI50 (SNB-19 CNS) [µM],TGI (SNB-19 CNS),GI50 (UACC-257 melanoma) [µM],TGI (UACC-257 melanoma)
Cc1ccc(NC(=O)c2ccoc2)cc1-c1ccc(C(=O)NCC2CC2)cc1,> 25,> 25 µM,> 25,> 25 µM,> 25,> 25 µM,> 19.3,> 25 µM,> 12.9,> 25 µM,> 18.8,> 25 µM,> 16.2,> 25 µM,> 25,> 25 µM,> 25,> 25 µM,> 17.7,> 25 µM
CCCCCOC(=O)c1c(C)[nH]c(/C=C2\N=C(c3ccc[nH]3)C=C2OC)c1C,0.0194,1.99 µM,0.0371,1.68 µM,0.0436,0.937 µM,0.0211,0.172 µM,0.32,1.97 µM,0.0391,1.33 µM,0.028,0.24 µM,0.0482,1.73 µM,0.317,8.4 µM,0.0953,1.28 µM
CN1CCN(c2ccc3nc(-c4[nH]ncc4Nc4ncnc5[nH]ccc45)[nH]c3c2)CC1,0.171,22.3 µM,0.362,22.7 µM,0.381,4.06 µM,0.216,2.03 µM,0.379,2.64 µM,5.24,> 100 µM,5.92,19.3 µM,0.358,5.71 µM,0.349,3.88 µM,0.571,20.4 µM
CCOc1cc(/C=C/C(=O)CC(=O)/C=C/c2ccc(OC(=O)CNc3nc4ccc(OC)cc4s3)c(OCC)c2)ccc1OC(=O)CNc1nc2ccc(OC)cc2s1,1.96,5.46 µM,3.17,12.3 µM,23,> 100 µM,3.16,23.9 µM,12.3,27.3 µM,20,> 100 µM,1.69,4.29 µM,11.6,65.5 µM,6.02,19.4 µM,5.53,21.1 µM
CN1CCC2(CC1)C(=O)Nc1cc(NC(=O)c3ccc4c(c3)C[C@@H]3C(C)(C)[C@H](O)[C@H](F)C[C@@]3(C)O4)ccc12,0.092,> 100 µM,10.6,57.6 µM,1.04,23 µM,0.0232,2.24 µM,1.49,9.79 µM,> 100,> 100 µM,0.0272,10.8 µM,13.2,> 100 µM,1.97,22 µM,3.21,21.2 µM
COCCn1c(Nc2ccc(C(=O)NO)cc2)nc2ccccc21,3.52,> 100 µM,2.91,14.7 µM,4.58,55.1 µM,3.43,34.3 µM,2.07,9.02 µM,1.3,4.84 µM,3.7,> 100 µM,7.28,47.4 µM,10.7,30 µM,1.77,14.1 µM
CCOC(=O)c1sc2nc(=S)[nH]c(NC(N)=S)c2c1C,7.22,73.9 µM,15.4,39.4 µM,21,49.7 µM,26,59.7 µM,37,72.1 µM,12.7,29.9 µM,18.4,49.9 µM,13.1,26.9 µM,28.1,> 100 µM,24.6,47.3 µM
O=C(Nc1ccc(Nc2ccc3c(c2)C(=O)c2ccccc2C3=O)c2c1C(=O)c1ccccc1C2=O)c1ccccc1,,> 72.8 µM,,> 100 µM,,> 100 µM,,> 91.9 µM,,> 100 µM,,> 100 µM,,> 100 µM,,> 100 µM,,> 100 µM,,> 100 µM
O=c1oc2ccccc2cc1P(=O)(O)O,,> 100 µM,,> 100 µM,,> 100 µM,,> 100 µM,,> 100 µM,,> 100 µM,,> 100 µM,,> 100 µM,,> 100 µM,,> 100 µM
CN(C)CCN1C(=O)c2cccc3cc(N)cc(c23)C1=O,3.45,> 50.7 µM and 20 µM,1.59,29.8 µM and 12.9 µM,3.08,18.8 µM and 11.4 µM,10.4,50.9 µM and 21.2 µM,2.41,9.85 µM and 8.29 µM,,> 67.2 µM and 12.2 µM,3.37,25.2 µM and 19.9 µM,2.83,> 56.9 µM and 16.3 µM,4.7,> 88.9 µM and 18.8 µM,2.55,9.51 µM and 12.8 µM
Clc1ccc(NCNC2Nc3ccccc3N2)cc1Cl,,> 100 µM,,> 100 µM,,> 100 µM,,> 100 µM,,> 100 µM,,> 100 µM,,> 100 µM,,> 100 µM,,> 100 µM,,> 100 µM
c1ccc2[nH]c(-c3ccc(Nc4nc(N5CCCC5)nc5[nH]ncc45)cc3)nc2c1,0.294,0.967 µM,1.13,2.77 µM,1.46,3.07 µM,1.21,4.26 µM,0.314,1.3 µM,0.392,1.47 µM,0.221,0.528 µM,1.67,4.15 µM,,,0.229,0.632 µM
C=C(C)[C@@H]1CC[C@]2(C(=O)OC)CC[C@]3(C)[C@H](CC[C@@H]4[C@@](C)(CCc5nn[nH]n5)[C@H](C(=C)C)CC[C@]43C)[C@@H]12,6.72,37.2 µM,16,32.4 µM,18.7,41.1 µM,19.8,53.8 µM,16.3,31.7 µM,20.8,73.2 µM,4.07,29.8 µM,14.7,32.8 µM,15.4,35.7 µM,23.9,79.9 µM
